# Literature values, collected in patent US8470873B2, “Vitamin E succinate stabilized pharmaceutical compositions, methods for the preparation and the use thereof” (Mast Therapeutics, Inc., priority 2006, dated 2013).
# Legend:
# [1] = hydrolysis
Compound,stability in the presence of water [1],solubility in water
"CC(=O)O[C@@]12CO[C@@H]1C[C@H](O)[C@@]1(C)C(=O)[C@H](O)C3=C(C)[C@@H](OC(=O)[C@H](O)[C@@H](NC(=O)OC(C)(C)C)c4ccccc4)C[C@@](O)([C@@H](OC(=O)c4ccccc4)[C@H]21)C3(C)C [Docetaxel, (2R,3S)-N-carboxy-3-phenylisoserine,N-tert-butyl ester, 13-ester with 5β-20-epoxy-1,2α-,4,7β,10β,13α-hexahydroxytax-11-en-9-one 4-acetate 2-benzoate, trihydrate]",very unstable,–
CC(=O)O[C@H]1C(=O)[C@@]2(C)[C@H]([C@H](OC(=O)c3ccccc3)[C@]3(O)C[C@H](OC(=O)[C@H](O)[C@@H](NC(=O)c4ccccc4)c4ccccc4)C(C)=C1C3(C)C)[C@]1(OC(C)=O)CO[C@@H]1C[C@@H]2O [paclitaxel],–,insoluble
